Experimental data reported in patent publication US5294619A, “Arylpiperidine derivatives” (Pfizer Inc., priority 1992, dated 1994).

Molecular target: T1, dopamine-2 receptor (Rattus norvegicus, UniProt P61169)
T1 construct: The caudate and mesolimbic areas were then homogenized; from tissue; host or cells: rat brain, caudate and mesolimbic areas (washed membrane homogenate)
Assay: 3[H]-N-propylnorapomorphine binding assay (rat caudate and mesolimbic brain tissue)
Details: inhibition of 3[H]-N-propylnorapomorphine binding, 0.32 nM radioligand, pH 7.5, 25° C., 30 minutes
Protocol: The anti-psychotic activity of the compounds of the present invention as neuroleptic agents for the control of various psychotic disorders is determined primarily by a study of their ability to suppress ^3 [H]-N-propylnorapormorphine (dopamine-2 receptor) uptake in the brain of rats (in vitro). This study is carried out in a standard ^3 [H]-N-propylnorapomorphine binding assay test, where the amount of radioactivity is determined by liquid scintillation counting. In this way, the compounds can be rated in terms of their ability to reduce the amount of radioactivity caused by the aforesaid dopamine-2-receptor.
The N-substituted arylpiperidine compounds of Examples 1-18, respectively, were tested for anti-psychotic activity in rats, using the standard ^3 [H]-N-propylnorapomorphine binding assay test, according to the general procedure described by K. Fuxe et al., as reported in the European Journal of Pharmacology, Vol. 100, p. 127 (1984).
In this procedure, the brain was quickly removed from a decapitated rat and the caudate and mesolimbic areas were subsequently dissected therefrom to afford an average of ca. 150-180 mg. of material per rat. The caudate and mesolimbic areas were then homogenized on admixture with 40 volumes of ice-cold 15 mM Tris (i.e., tromethamine which is 2-amino-2-hydroxymethyl-1,3-propanediol) hydrochloride buffer having a pH of 7.5, which also contained 1.0 mM ethylenediaminetetraacetic acid (EDTA) and 0.01% ascorbic acid. The homogenate was next centrifuged at 35,000×G for a period of ten minutes. The supernatant liquid was then decanted, and the resulting pellet subsequently resuspended in 40 volumes of fresh, ice-cold Tris-EDTA buffer and homogenized, followed by incubation 37° C. for a period of ten minutes. The resulting homogenate was next re-centrifuged at 35,000×G for another ten-minute period, followed by decantation of the supernatant liquid. The pellet obtained in this manner was then resuspended again in the Tris-EDTA buffer, followed by a repeat of the centrifugation and decantation steps, with the final pellet being resuspended once more in 15 mM Tris-EDTA buffer at a concentration level of 11.25 mg./ml. This completed the production of the tissue preparation phase of the overall procedure.
. The final reaction mixture was next vortexed and incubated at 25° C. for a period of 30 minutes (using a 25° C. water bath for these purposes). […] Upon completion of the reaction step, the incubation period was terminated by subjecting the tubes to rapid filtration under vacuum through fiber filters, followed by two rinses with 5 ml. of ice-cold 15 mM Tris-EDTA buffer for each tube. The filters thus obtained were next soaked in 10 ml. of Aquasol 2 (a registered trademark name of New England Nuclear Corporation of Boston, Massachusetts for a liquid scintillation counter material), vortexed and then allowed to stand overnight (ca. 18 hours) at ambient temperatures in order to extract radioactivity. The amount of radioactivity was determined by liquid scintillation counting, using a Beta counter at 53% counting efficiency. The IC50 values were thereafter calculated by using standard statistical methods. On this basis, the ability of each test compound to reduce the amount of radioactivity caused by ^3 [H]-N-propylnorapomorphine is given as an IC50 value, expressed in terms of nM units.
In this way, the N-substituted arylpiperidine compounds of formula I that were reported as final products in Examples 1-18, respectively, were all assayed and found to be capable of inhibiting ^3 [H]-N-propylnorapomorphine binding at its dopamine-2 receptor site at the previously-indicated dose level tested. The results obtained in this manner are shown below in the following table, where the binding assay for each compound is reported in terms of the previously-discussed IC50 value: […]

T1 sequence (P61169 whole entry): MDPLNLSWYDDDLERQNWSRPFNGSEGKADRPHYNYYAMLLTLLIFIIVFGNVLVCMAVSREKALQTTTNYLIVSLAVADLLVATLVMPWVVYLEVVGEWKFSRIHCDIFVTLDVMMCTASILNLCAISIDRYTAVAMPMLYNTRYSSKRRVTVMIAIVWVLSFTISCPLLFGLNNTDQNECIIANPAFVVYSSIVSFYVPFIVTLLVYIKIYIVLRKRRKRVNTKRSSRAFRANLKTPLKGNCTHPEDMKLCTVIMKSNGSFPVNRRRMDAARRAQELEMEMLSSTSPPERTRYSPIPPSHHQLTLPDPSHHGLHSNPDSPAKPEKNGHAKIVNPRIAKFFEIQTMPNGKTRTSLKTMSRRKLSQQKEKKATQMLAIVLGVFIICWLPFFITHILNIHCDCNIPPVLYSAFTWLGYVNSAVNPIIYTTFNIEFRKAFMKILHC

**Q.** `COc1ccccc1C1CCCN(CCCCN2C(=O)C3CCC(C)(C2=O)C3(C)C)C1` (stereo not drawn) [Example 18, 3-{4-[3-(2-methoxyphenyl)-1-piperidinyl]-n-butyl]-1,8,8-trimethyl-3-azabicyclo[3.2.1]octane-2,4-dione] was tested. Which IC50 did it give?
**A.** 679 nM

**Q.** For `COc1ccccc1C1CCCN(CCCCN2C(=O)CC3(CCCC3)CC2=O)C1` (stereo not drawn) [Example 15, 8-{4-[3-(2-methoxyphenyl)-1-piperidinyl]-n-butyl}-8-azaspiro[4.5]decane-7,9-dione], which IC50 is on record?
**A.** 531 nM

**Q.** With `COc1ccccc1C1CCCN(CCCCc2ccc(-c3csc(N)n3)cc2)C1` (stereo not drawn) [Example 13, 4-{{4-{4-[3-(2-methoxyphenyl)-1-piperidinyl]n-butyl}-phenyl}}thiazole-2amine] as the compound, how does the IC50 read?
**A.** 247 nM

**Q.** Which IC50 does the source give for `Oc1ccc(CCN2CCC(c3cccc(C(F)(F)F)c3)CC2)cc1` [Example 9, 4-{2-[4-(3-trifluoromethylphenyl)-piperidinyl]ethyl}phenol] here?
**A.** 601 nM

**Q.** With `FC(F)(F)c1cccc(C2CCN(CCOc3ccccc3)CC2)c1` [Example 10, 1-{2-[4-(3-trifluoromethylphenyl)-1-piperidinyl]ethyloxy}benzene] as the compound, how does the IC50 read?
**A.** 210 nM

**Q.** `CC12CCC(C(=O)N(CCCCN3CCCC(c4cccc5ccccc45)C3)C1=O)C2(C)C` (stereo not drawn) [Example 7] was tested. Which IC50 did it give?
**A.** 1110 nM

**Q.** With `COc1ccccc1C1CCN(CCCCc2ccc(-c3csc(N)n3)cc2)CC1` [Example 14, 4-{{4-{4-[4-(2-methoxyphenyl)-1-piperidinyl]-n-butyl}-phenyl}}thiazole-2-amine] as the compound, how does the IC50 read?
**A.** 51.6 nM

**Q.** Which IC50 does the source give for `Oc1ccc(CCN2CCC(c3ccccc3)CC2)cc1` [Example 8, 4-[2-(4-phenyl-1-piperidinyl)ethyl]phenol] here?
**A.** 362 nM

**Q.** For `COc1ccccc1C1CCCN(CCc2ccc(-c3csc(N)n3)cc2)C1` (stereo not drawn) [Example 12, 4-{{4-{2-[3-(2-methoxyphenyl)-1-piperidinyl]ethyl}phenyl}}-thiazole-2-amine], which IC50 is on record?
**A.** 150 nM

**Q.** Which IC50 does the source give for `O=C1CC2(CCCC2)CC(=O)N1CCCCN1CCC(c2cccc3ccccc23)CC1` [Example 3, 8-{4-[4-(1-naphthyl)-1-piperidinyl]-butyl}-8-azaspiro[4.5]decane-7,9-dione] here?
**A.** 239 nM

**Q.** `O=C1Cc2cc(CCN3CCC(c4cccc5ccccc45)CC3)ccc2N1` [Example 4, 5-{2-[4-(1-naphthyl)-1-piperidinyl]ethyl}-oxindole] was tested. Which IC50 did it give?
**A.** 184 nM

**Q.** For `COc1ccccc1C1CCN(CCc2ccc(-c3csc(N)n3)cc2)CC1` [Example 11, 4-{{4-{2-[4-(2-methoxyphenyl)-1-piperidinyl]ethyl}-phenyl}}-thiazole-2-amine], which IC50 is on record?
**A.** 36.3 nM

**Q.** With `COc1ccccc1C1CCN(CCCCN2C(=O)C3CCC(C)(C2=O)C3(C)C)CC1` (stereo not drawn) [Example 17] as the compound, how does the IC50 read?
**A.** 51.5 nM

**Q.** For `CC12CCC(C(=O)N(CCCCN3CCC(c4cccc5ccccc45)CC3)C1=O)C2(C)C` (stereo not drawn) [Example 6, 3-{4-[4-(1-naphthyl)-1-piperidinyl]-n-butyl}-1,8,8-trimethyl-3-azabicyclo[3.2.1]octane-2,4-dione], which IC50 is on record?
**A.** 169 nM

**Q.** For `COc1ccccc1C1CCN(CCc2ccc3c(c2)CC(=O)N3)CC1` [Example 16, 5-{2-[4-(2-methoxyphenyl)-1-piperidinyl]ethyl}oxindole], which IC50 is on record?
**A.** 52.2 nM

**Q.** With `Nc1nc(-c2ccc(CCN3CCC(c4cccc5ccccc45)CC3)cc2)cs1` [Example 2, 4-{{4-{2-[4-(1-naphthyl)piperidinyl]ethyl}phenyl}}thiazole-2-amine] as the compound, how does the IC50 read?
**A.** 196 nM

**Q.** `O=C1Cc2cc(CCN3CCCC(c4cccc5ccccc45)C3)ccc2N1` (stereo not drawn) [Example 5, 5-{2-[3-(1-naphthyl)-1-piperidinyl]ethyl}oxindole] was tested. Which IC50 did it give?
**A.** 169 nM

**Q.** With `Cc1nc2ccccn2c(=O)c1CCN1CCC(c2cccc3ccccc23)CC1` [Example 1, 3-{2-[4-(1-naphthyl)-piperidinyl]ethyl}-2-methyl-4H-pyrido[1,2-a]-pyrimidine-4-one] as the compound, how does the IC50 read?
**A.** 114 nM
